System: carbapenem-resistant A. baumannii (CRAB) isolates (n = 67)
Experiment: MIC, broth microdilution (EUCAST), carbapenem-resistant A. baumannii isolates
Type: cell-based, Acinetobacter baumannii
Settings: for MIC: Acinetobacter baumannii
From the text: The bacterial strains used in this study comprised 208 clinical isolates from the Spanish National Acinetobacter spp. 2020 Multicenter Collection, which was previously characterized in detail by our research group, including whole-genome sequencing, phylogenetics studies, clonal dynamics, and resistance mechanisms ([2], [29]). Additionally, a collection of A. baumannii ATCC 17978 transformants coding the blaOXA-23, blaOXA-24/40, blaOXA-51, blaOXA-58, blaOXA-143, and blaOXA-201 genes, previously constructed and described by our group ([30]), was used to determine the activity of enmetazobactam against strains carrying the main CHDLs of A. baumannii.
The antimicrobial susceptibility of the 208 Acinetobacter spp. isolates was assessed using the broth microdilution method, as described in the European Committee on Antimicrobial Susceptibility Testing (EUCAST) v.15 guidelines (http://www.eucast.org/clinical_breakpoints). […] MICs for enmetazobactam alone were assessed as well. […] Subsequently, MIC testing was also conducted with a collection of A. baumannii ATCC 17978 transformants expressing clinically relevant OXA-like carbapenemase genes.
The A. baumannii ATCC 19606 strain was used as the reference strain in all susceptibility experiments, in duplicate assays. Antibiotics were purchased from Sigma-Aldrich, except enmetazobactam and durlobactam, which were obtained from Advanz Pharma and MedChemExpress, respectively.

[1] = CHDLs-producing A. baumannii isolates (n = 67), durlobactam series, DUR fixed 4 mg/L in combinations

C[n+]1ccn(C[C@@]2(C)[C@H](C(=O)[O-])N3C(=O)C[C@H]3S2(=O)=O)n1 [enmetazobactam]
MIC (isolate Ab83, ST 25, ADC-5, OXA-64, OXA-23, ETZ fixed 8 mg/L in combinations): 64 µg/mL
MIC (isolate Ab109, ST 1, ADC-75, OXA-69, OXA-23, DUR fixed at 4 mg/L in combinations): 32 µg/mL
MIC (isolate Ab109, ST 1, ADC-75, OXA-69, OXA-23, ETZ fixed 8 mg/L in combinations): 32 µg/mL
MIC (isolate Ab133, ST 2, ADC-30, OXA-66, OXA-58, TEM-12, DUR fixed at 4 mg/L in combinations): 8 µg/mL
MIC (isolate Ab133, ST 2, ADC-30, OXA-66, OXA-58, TEM-12, ETZ fixed 8 mg/L in combinations): 8 µg/mL
MIC (isolate Ab134, ST 2, ADC-30, OXA-66, OXA-58, TEM-12, DUR fixed at 4 mg/L in combinations): 8 µg/mL
MIC (isolate Ab134, ST 2, ADC-30, OXA-66, OXA-58, TEM-12, ETZ fixed 8 mg/L in combinations): 8 µg/mL
MIC (isolate Ab137, ST 85, ADC-2, OXA-94, OXA-23, DUR fixed at 4 mg/L in combinations): 64 µg/mL
MIC (isolate Ab137, ST 85, ADC-2, OXA-94, OXA-23, ETZ fixed 8 mg/L in combinations): 64 µg/mL
MIC (isolate Ab138, ST 745, ADC-30, OXA-66, OXA-58, DUR fixed at 4 mg/L in combinations): 64 µg/mL
MIC (isolate Ab138, ST 745, ADC-30, OXA-66, OXA-58, ETZ fixed 8 mg/L in combinations): 64 µg/mL
MIC (isolate Ab140, ST 85, ADC-2, OXA-94, OXA-23, DUR fixed at 4 mg/L in combinations): 64 µg/mL
MIC (isolate Ab140, ST 85, ADC-2, OXA-94, OXA-23, ETZ fixed 8 mg/L in combinations): 64 µg/mL
MIC (isolate Ab141, ST 745, ADC-30, OXA-66, OXA-58, DUR fixed at 4 mg/L in combinations): 8 µg/mL
MIC (isolate Ab141, ST 745, ADC-30, OXA-66, OXA-58, ETZ fixed 8 mg/L in combinations): 8 µg/mL
MIC (isolate Ab144, ST 745, ADC-30, OXA-66, OXA-58, DUR fixed at 4 mg/L in combinations): 32 µg/mL
MIC (isolate Ab144, ST 745, ADC-30, OXA-66, OXA-58, ETZ fixed 8 mg/L in combinations): 32 µg/mL
MIC (isolate Ab169, ST 2, ADC-30, OXA-66, OXA-23, DUR fixed at 4 mg/L in combinations): 32 µg/mL
MIC (isolate Ab169, ST 2, ADC-30, OXA-66, OXA-23, ETZ fixed 8 mg/L in combinations): 64 µg/mL
MIC (isolate Ab171, ST 2, ADC-30, OXA-66, OXA-23, DUR fixed at 4 mg/L in combinations): 32 µg/mL
MIC (isolate Ab171, ST 2, ADC-30, OXA-66, OXA-23, ETZ fixed 8 mg/L in combinations): 64 µg/mL
MIC (isolate Ab173, ST 2, ISAba1-ADC-30, OXA-66, OXA-23, DUR fixed at 4 mg/L in combinations): 64 µg/mL
MIC (isolate Ab173, ST 2, ISAba1-ADC-30, OXA-66, OXA-23, ETZ fixed 8 mg/L in combinations): 64 µg/mL
MIC (isolate Ab174, ST 2, ADC-30, OXA-66, OXA-23, DUR fixed at 4 mg/L in combinations): 64 µg/mL
MIC (isolate Ab174, ST 2, ADC-30, OXA-66, OXA-23, ETZ fixed 8 mg/L in combinations): 64 µg/mL
MIC (isolate Ab179, ST 2, ADC-30, OXA-66, OXA-23, DUR fixed at 4 mg/L in combinations): 64 µg/mL
MIC (isolate Ab179, ST 2, ADC-30, OXA-66, OXA-23, ETZ fixed 8 mg/L in combinations): 64 µg/mL
MIC (isolate Ab180, ST 2, ADC-30, OXA-66, OXA-24/40, DUR fixed at 4 mg/L in combinations): 32 µg/mL
MIC (isolate Ab180, ST 2, ADC-30, OXA-66, OXA-24/40, ETZ fixed 8 mg/L in combinations): 32 µg/mL
MIC (isolate Ab181, ST 2, ADC-30, OXA-66, OXA-23, DUR fixed at 4 mg/L in combinations): 32 µg/mL
MIC (isolate Ab181, ST 2, ADC-30, OXA-66, OXA-23, ETZ fixed 8 mg/L in combinations): 32 µg/mL
MIC (isolate Ab182, ST 2, ADC-30, OXA-66, OXA-23, DUR fixed at 4 mg/L in combinations): 16 µg/mL
MIC (isolate Ab182, ST 2, ADC-30, OXA-66, OXA-23, ETZ fixed 8 mg/L in combinations): 16 µg/mL
MIC (isolate Ab183, ST 2, ADC-30, OXA-66, OXA-23, DUR fixed at 4 mg/L in combinations): 32 µg/mL
MIC (isolate Ab183, ST 2, ADC-30, OXA-66, OXA-23, ETZ fixed 8 mg/L in combinations): 32 µg/mL
MIC (isolate Ab184, ST 2, ADC-30, OXA-66, OXA-23, DUR fixed at 4 mg/L in combinations): 32 µg/mL
MIC (isolate Ab184, ST 2, ADC-30, OXA-66, OXA-23, ETZ fixed 8 mg/L in combinations): 32 µg/mL
MIC (isolate Ab186, ST 2, ADC-30, OXA-66, OXA-23, DUR fixed at 4 mg/L in combinations): 32 µg/mL
MIC (isolate Ab186, ST 2, ADC-30, OXA-66, OXA-23, ETZ fixed 8 mg/L in combinations): 32 µg/mL
MIC (isolate Ab191, ST 2, ADC-30, OXA-66, OXA-23, DUR fixed at 4 mg/L in combinations): 64 µg/mL
MIC (isolate Ab191, ST 2, ADC-30, OXA-66, OXA-23, ETZ fixed 8 mg/L in combinations): 64 µg/mL
MIC (isolate Ab192, ST 2, ADC-30, OXA-66, OXA-23, DUR fixed at 4 mg/L in combinations): 32 µg/mL
MIC (isolate Ab192, ST 2, ADC-30, OXA-66, OXA-23, ETZ fixed 8 mg/L in combinations): 64 µg/mL
MIC (isolate Ab194, ST 2, ADC-30, OXA-66, OXA-23, DUR fixed at 4 mg/L in combinations): 64 µg/mL
MIC (isolate Ab194, ST 2, ADC-30, OXA-66, OXA-23, ETZ fixed 8 mg/L in combinations): 64 µg/mL
MIC (isolate Ab199, ST 2, ADC-30, OXA-66, OXA-23, DUR fixed at 4 mg/L in combinations): 32 µg/mL
MIC (isolate Ab199, ST 2, ADC-30, OXA-66, OXA-23, ETZ fixed 8 mg/L in combinations): 32 µg/mL
MIC (isolate Ab201, ST 2, ADC-30, OXA-66, OXA-23, DUR fixed at 4 mg/L in combinations): 64 µg/mL
MIC (isolate Ab201, ST 2, ADC-30, OXA-66, OXA-23, ETZ fixed 8 mg/L in combinations): 64 µg/mL
MIC (isolate Ab204, ST 2, ADC-30, OXA-66, OXA-23, DUR fixed at 4 mg/L in combinations): 32 µg/mL
MIC (isolate Ab204, ST 2, ADC-30, OXA-66, OXA-23, ETZ fixed 8 mg/L in combinations): 32 µg/mL
MIC50 [1]: 64 µg/mL
MIC90 [1]: 64 µg/mL
MIC distribution 0.12 (cumulative % of CHDLs-producing A. baumannii isolates (n = 67) at MIC 0.12 mg/L, DUR fixed 4 mg/L in combinations): 0.0%
MIC distribution 0.25 (cumulative % of CHDLs-producing A. baumannii isolates (n = 67) at MIC 0.25 mg/L, DUR fixed 4 mg/L in combinations): 0.0%
MIC distribution 0.5 (cumulative % of CHDLs-producing A. baumannii isolates (n = 67) at MIC 0.5 mg/L, DUR fixed 4 mg/L in combinations): 0.0%
MIC distribution 1 (cumulative % of CHDLs-producing A. baumannii isolates (n = 67) at MIC 1 mg/L, DUR fixed 4 mg/L in combinations): 0.0%
MIC distribution 2 (cumulative % of CHDLs-producing A. baumannii isolates (n = 67) at MIC 2 mg/L, DUR fixed 4 mg/L in combinations): 0.0%
MIC distribution 4 (cumulative % of CHDLs-producing A. baumannii isolates (n = 67) at MIC 4 mg/L, DUR fixed 4 mg/L in combinations): 10.4%
MIC distribution 8 (cumulative % of CHDLs-producing A. baumannii isolates (n = 67) at MIC 8 mg/L, DUR fixed 4 mg/L in combinations): 22.4%
MIC distribution 16 (cumulative % of CHDLs-producing A. baumannii isolates (n = 67) at MIC 16 mg/L, DUR fixed 4 mg/L in combinations): 25.4%
MIC distribution 32 (cumulative % of CHDLs-producing A. baumannii isolates (n = 67) at MIC 32 mg/L, DUR fixed 4 mg/L in combinations): 46.3%
MIC distribution ≤0.06 (cumulative % of CHDLs-producing A. baumannii isolates (n = 67) at MIC ≤0.06 mg/L, DUR fixed 4 mg/L in combinations): 0.0%
MIC distribution ≥64 (cumulative % of CHDLs-producing A. baumannii isolates (n = 67) at MIC ≥64 mg/L, DUR fixed 4 mg/L in combinations): 100%
MIC distribution 0.12 (cumulative share of CRAB isolates (n = 67) at MIC 0.12 mg/L, ETZ fixed 8 mg/L in combinations): 0
MIC distribution 0.25 (cumulative share of CRAB isolates (n = 67) at MIC 0.25 mg/L, ETZ fixed 8 mg/L in combinations): 0
MIC distribution 0.5 (cumulative share of CRAB isolates (n = 67) at MIC 0.5 mg/L, ETZ fixed 8 mg/L in combinations): 0
MIC distribution 1 (cumulative share of CRAB isolates (n = 67) at MIC 1 mg/L, ETZ fixed 8 mg/L in combinations): 0
MIC distribution 2 (cumulative share of CRAB isolates (n = 67) at MIC 2 mg/L, ETZ fixed 8 mg/L in combinations): 0
MIC distribution 4 (cumulative share of CRAB isolates (n = 67) at MIC 4 mg/L, ETZ fixed 8 mg/L in combinations): 10.4
MIC distribution 8 (cumulative share of CRAB isolates (n = 67) at MIC 8 mg/L, ETZ fixed 8 mg/L in combinations): 19.4
MIC distribution 16 (cumulative share of CRAB isolates (n = 67) at MIC 16 mg/L, ETZ fixed 8 mg/L in combinations): 25.4
MIC distribution 32 (cumulative share of CRAB isolates (n = 67) at MIC 32 mg/L, ETZ fixed 8 mg/L in combinations): 41.8
MIC distribution 64 (cumulative share of CRAB isolates (n = 67) at MIC 64 mg/L, ETZ fixed 8 mg/L in combinations): 100
MIC distribution ≤0.06 (cumulative share of CRAB isolates (n = 67) at MIC ≤0.06 mg/L, ETZ fixed 8 mg/L in combinations): 0

Source: article PMC12888861, “Antibacterial activity of enmetazobactam against Acinetobacter spp.: a molecular dissection of mechanism of action and resistance determinants” (Antimicrobial Agents and Chemotherapy, 2025)
